From patent EP0713704A1, “2-Amino-1,3-thiazines as nitric oxide synthase inhibitors” (HOECHST AKTIENGESELLSCHAFT, priority 1994, dated 1996) come the findings set out here.

The target of one assay is T1, NO-Synthase (iNOS) (Mus musculus, UniProt P29477).
T1 construct: wird die Neusynthese des NO-produzierenden Enzyms NO-Synthase (iNOS) induziert; endogenous in cells; host or cells: RAW 264.7 mouse macrophages stimulated with LPS and γ-interferon
Kind of assay: NO measurement by oxyhaemoglobin on macrophages (inhibition of NO release, LPS/γIFN-stimulated). In kind it is cell-based, Maus. As to conditions: Mäusemakrophagen RAW 264.7, stimulated with LPS + γIFN for 4 h, 120 min incubation with test substance; read-out: IC₅₀-Wert.

In assay [1] the target is induzierbaren NO-Synthase (Homo sapiens, UniProt P35228). Kind of assay: NO synthase activity assay: quantification of coproduct 3H-L-citrulline formed from 3H-L-arginine. As to conditions: read-out: Restaktivität. The assay is classed as biochemical. The source says: Die erfindungsgemäße Hemmung der NO-Freisetzung durch die Verbindungen der allgemeinen Formel I kann durch einen Aktivitätsassay bestimmt werden, der auf Arbeiten von Bredt und Snyder sowie Schmidt et al. basiert (s. D.S. Bredt und S.S. Snyder, Isolation of nitric oxide synthase, a calmodulin-requiring enzyme, Proc. Natl. Acad. Sci. USA 87 (1990), 682; H.H.H.W.Schmidt et al., Purification of a soluble isoform of guanylyl cyclase-activating factor synthase, Proc. Natl. Acad. Sci. USA 88 (1991), 365). Hierbei wird für gereinigte NO-Synthase (NOS) das bei der NO-Bildung anfallende Coprodukt L-Citrullin quantitativ erfaßt. Dies geschieht durch den Einsatz von ³H-radiomarkiertem L-Arginin als Substrat der Enzymreaktion, das zu ³H-L-Citrullin und NO umgesetzt wird. Nach Beendigung der Enzyminkubation wird […]; die durch Flüssigkeitsszintillationsmessung ermittelte ³H-Aktivität entspricht dann der Menge an L-Citrullin.
• a) Die Substanz ist analog Beispiel 2 erhältlich. Weiße Kristalle vom Schmp. 153 °C. • b) Die pharmakologische Wirkung wurde in dem oben beschriebenen Aktivitätsassy ermittelt, bei dem das von der NO-Synthase als Coprodukt gebildete Citrullin bestimmt wird. Es wurden folgende Hemmungen der induzierbaren NO-Synthase beobachtet: […]

Counter-ions that a name gives are not always drawn.

Method for NO-Synthase (iNOS): Die Hemmung der NO-Freisetzung durch die Verbindungen der allgemeinen Formel I kann auch durch NO-Messung mittels Oxyhämoglobin auf Makrophagen wie folgt bestimmt werden:
Die subkonfluenten Zellen werden mit dem Zellschaber abgekratzt, in Medium aufgenommen, die Zellzahl bestimmt (Zählung in Trypanblaulösung 0,2 %) und in 24-Napfplatten (1 x 10⁶ Zellen/ml, 1 ml/Napf) ausgesät.
Dazu wird das Kulturmedium von den Zellen abgesaugt und 1 ml/Napf (24-Napfplatte) Inkubationsmedium (MEM ohne Phenolrot (Biochrom F0385)), konditioniert mit 4mM Glutamin, 3,5 g Glukose/l, 3,7 g NaHCO₃/l, 110 mg Natriumpyruvat/l, 50 U/50 µg/ml Pen/Strep und 5 % FKS, aufgegeben. Pro ml Inkubationsmedium werden 1 µl LPS und 1 µl γIFN pipettiert.
Daraus ergeben sich folgende Konzentrationen der Stimulatoren: 140 ng LPS/ml + 5 U γIFN/ml [formula] Während der Stimulation über 4 Stunden wird die Neusynthese des NO-produzierenden Enzyms NO-Synthase (iNOS) induziert. Nach diesem Inkubationszeitraum wird das Inkubationsmedium abgesaugt und jeder Napf zweimal mit frischem Inkubationsmedium gespült. […] Als Kontrolle wird das konditionierte Versuchsmedium nur mit dem Lösungsmittel der Testsubstanz versetzt.
Nach dem Abpipettieren des Versuchsmediums wird die Cytotoxizität der Testsubstanz geprüft (Zellviabilität).

For `NC1=NCCCS1` [Beispiel 1, 2-Amino-5,6-dihydro-4H-1,3-thiazin-Hydrobromid], the IC50 at NO-Synthase (iNOS) is 1300 nM.
With `CC1(C)CCSC(N)=N1` [Beispiel 3, 2-Amino-4,4-dimethyl-5,6-dihydro-1,3-thiazin-Hydrochlorid], the activity at 1 µM in assay [1] (Konzentration: 1 µM) is 15%. The activity at 10 µM in assay [1] (Konzentration: 10 µM) was found to be 12%.
